Patent US9029451B2, “Waterborne coating compositions that include 2,2,4-trimethyl-3-oxopentanoate esters as reactive coalescents” (Eastman Chemical Company, priority 2010, dated 2015)
Like-named read-outs stand apart in the source and are kept apart here.

Key:
[1] = Boiling point of coalescent; format: physicochemical
Method: The novel compounds were evaluated for their coalescing properties and compared to 2,2,4-trimethylpentane-1,3-diol monoisobutyrate (Texanol) and Optifilm Enhancer 400 (OE 400), two coalescents that are widely used in industry (Table 2).

[2] = Hydrolytic stability in latex at 120° F., pH and Brookfield viscosity; format: physicochemical
Method: Approximately 100 grams of either Rhoplex AC 2508 (Rohm & Haas acrylic polymer emulsion) or Rhoplex SG-10M (Rohm & Haas acrylic polymer emulsion) was weighed out into a 4 ounce jar and 10 phr (parts per hundred resin) of the coalescing aid was added (based on percent solids of the emulsion by weight). The sample was placed on lab rollers for 24 hours before the initial pH and viscosity was taken. The viscosity was measured by a Brookfield viscometer in centipoises. The sample was then placed into a lab oven at 120° F. The pH and viscosity was checked weekly for four weeks (Tables 3 & 4). Any change in the appearance of the sample such as gel particles or phase separation was recorded weekly also.

[3] = Water miscibility, % organic in water method (gravimetric); format: physicochemical; conditions: saturation point
Method: (§1) Water miscibility was measured by the following methods:
% Organic in Water Method:
The novel coalescent was added drop wise to 25 mL Milli-Q water and the mixture stirred at 1000 rpm for 10 minutes. If the coalescent dissolved, an additional drop or drops were added until traces of the organic solvent remained after the mixture had been stirred for 20 minutes. The percent organic solvent at the saturation point was determined gravimetrically.

Density, ASTM D 1475-98 = format: physicochemical
[4] = Water miscibility, % water in solvent method (Karl Fischer); format: physicochemical; conditions: stirred approx. 48 hours
Method: as §1
% Water in Solvent Method:
Approximately 5-10 mL of the novel coalescent was slowly added to 10-15 mL Milli-Q water in an 8-dram vial. The mixture was slowly stirred for approximately 48 hours at 100-150 rpm. The organic layer was analyzed in triplicate for percent water by Karl Fischer methodology.

[5] = % non-volatile, 110° C. for 1 hour (ASTM D2369); format: physicochemical
Method: 2,2,4-trimethyl-3-oxopentanoate esters useful as reactive coalescents according to the invention include those having a weight percent volatile content of less than 50%, as measured according to ASTM Method D2369. This test may be conducted generally by heating the sample in a forced air oven at 110° C. for 60 minutes. The weight loss after the test is deemed to result from a loss of volatiles originally present in the sample; the percent volatile present in the original sample may then be calculated. Although the cited test can be conducted on coating compositions containing other components such as latex polymers, the values cited herein may be obtained from a sample of the coalescent itself. Thus, the weight percent volatile of a coalescent may be used herein as a yardstick to measure the amount of VOC the coalescent would contribute to the VOC of a coating composition.

[6] = MFFT testing, coalescing efficiency
Method: The MFFT samples were prepared by weighing out 20 grams (+/−0.01 g) of emulsion into 50 ml beakers. The beakers of emulsion were placed on magnetic stirrers and the coalescing aid added dropwise by pipet. The weight of the drops were determined by adding 40 drops of the coalescing aid to a tared weighing dish, then the weight per drop was calculated by taking an average of the total weight (total weight divided by 40 drops). The coalescing aid was added to the emulsion based on solids by weight. The MFFT samples were allowed to stir for approximately 15 minutes, transferred to 8 dram vials and placed onto lab rollers and allowed to equilibrate for at least 24 hours. The samples were then drawn down on the MFFT bar, which is typically set on range #2 (0° to 18° C.), and the films allowed to dry. The areas in which the films have stopped cracking are visually determined and the MFFT value is read from the scale on the instrument and converted to degrees Fahrenheit. Linear Regression was used to calculate the amount of coalescing aid required to lower the films MFFT to 40° F. In Table #5, the phr40 values (parts per hundred resin based on solids by weight) are the amount of coalescing aid required to reduce the MFFT to 40° F. A lower number indicates the coalescent is more efficient at reducing the MFFT of the film.

[7] = Rhoplex AC 2508, 10 phr coalescent, Initial
[8] = Rhoplex AC 2508, 10 phr, 120° F., 1 week
[9] = Rhoplex AC 2508, 10 phr, 120° F., 2 weeks
[10] = Rhoplex AC 2508, 10 phr, 120° F., 3 weeks
[11] = Rhoplex AC 2508, 10 phr, 120° F., 4 weeks
[12] = Rhoplex SG-10M, 10 phr coalescent, Initial
[13] = Rhoplex SG-10M, 10 phr, 120° F., 1 week
[14] = Rhoplex SG-10M, 10 phr, 120° F., 2 weeks
[15] = Rhoplex SG-10M, 10 phr, 120° F., 3 weeks
[16] = Rhoplex SG-10M, 10 phr, 120° F., 4 weeks
[17] = latex Acronal 296D, linear regression
[18] = latex Rhoplex HG-74P, linear regression
[19] = latex Rhoplex SG-10M, linear regression
[20] = latex Ucar 379G, linear regression
[21] = latex Ucar 626, linear regression
[22] = Rhoplex AC 2508, compared with industry standards
[23] = Rhoplex SG-10M, compared with industry standards

Compound | Viscosity (cps) [2, 7] [cps] | pH [2, 7] | Viscosity (cps) [2, 8] [cps] | pH [2, 8] | Viscosity (cps) [2, 9] [cps] | pH [2, 9] | Viscosity (cps) [2, 10] [cps] | pH [2, 10] | Viscosity (cps) [2, 11] [cps] | pH [2, 11] | Water Miscibility % solvent in water layer [3] [%] | Density (lbs/gal) (Density, ASTM D 1475-98) | Water Miscibility % water in solvent layer [4] [%] | % non-volatile @ 110° C. for 1 hour [5] [%] | Boiling Point (° C. @ 760 torr) [1] [°C] | phr of Coalescent required to lower MFFT to 40° F. [6, 17] [phr] | phr of Coalescent required to lower MFFT to 40° F. [6, 18] [phr] | phr of Coalescent required to lower MFFT to 40° F. [6, 19] [phr] | phr of Coalescent required to lower MFFT to 40° F. [6, 20] [phr] | phr of Coalescent required to lower MFFT to 40° F. [6, 21] [phr] | also measured
2,2,4-trimethylpentane-1,3-diol monoisobutyrate [Texanol, reference compound] | 905 | 8.2 | 685 | 7.9 | 665 | 8.0 | 631 | 7.8 | 638 | 7.9 | 0.1 | 7.92 | 3.0 | 0.0 | – | 4.7 | 8.3 | 4.6 | 0.1 | 6.2 | Boiling Point (° C. @ 760 torr) ([1]; @ 760 torr): 255.0 °C; Viscosity (cps) [2, 12]: 544 cps; pH [2, 12]: 8.7; Viscosity (cps) [2, 13]: 554 cps; pH [2, 13]: 8.5; Viscosity (cps) [2, 14]: 484 cps; pH [2, 14]: 8.8; Viscosity (cps) [2, 15]: 474 cps; pH [2, 15]: 8.6; Viscosity (cps) [2, 16]: 471 cps; pH [2, 16]: 8.3
CC(C)C(=O)C(C)(C)C(=O)OCCO [Example 1, 2-Hydroxyethyl 2,2,4-trimethyl-3-oxopentanoate] | 1430 | 8.3 | 1360 | 7.7 | 1150 | 7.7 | 1060 | 7.6 | 1070 | 7.4 | 5.0 | 8.75 | 7.6 | 10.6 | 254.8 | 4.2 | 8.2 | 4.7 | 1.5 | 6.5 | –
CCCCOCCOCCOC(=O)C(C)(C)C(=O)C(C)C [Example 5, 2-(2-Butoxyethoxy)ethyl 2,2,4-trimethyl-3-oxopentanoate] | – | – | – | – | – | – | – | – | – | – | 0.02 | 8.02 | 0.40 | 64.0 | 272.1 | 4.2 | – | 4.6 | 0.9 | – | Viscosity (cps) [2, 12]: 548 cps; pH [2, 12]: 8.6; Viscosity (cps) [2, 13]: 631 cps; pH [2, 13]: 8.3; Viscosity (cps) [2, 14]: 461 cps; pH [2, 14]: 8.7; Viscosity (cps) [2, 15]: 458 cps; pH [2, 15]: 8.6; Viscosity (cps) [2, 16]: 511 cps; pH [2, 16]: 8.2; hydrolytic stability, in words [2, 23]: better than the industry standards

The next lines start with results.

Viscosity (cps) [2, 7] [cps] | pH [2, 7] | Viscosity (cps) [2, 8] [cps] | pH [2, 8] | Viscosity (cps) [2, 9] [cps] | pH [2, 9] | Viscosity (cps) [2, 10] [cps] | pH [2, 10] | Viscosity (cps) [2, 11] [cps] | pH [2, 11] | Water Miscibility % solvent in water layer [3] [%] | Density (lbs/gal) (Density, ASTM D 1475-98) | Water Miscibility % water in solvent layer [4] [%] | % non-volatile @ 110° C. for 1 hour [5] [%] | Boiling Point (° C. @ 760 torr) [1] [°C] | Compound | phr of Coalescent required to lower MFFT to 40° F. [6, 17] [phr] | phr of Coalescent required to lower MFFT to 40° F. [6, 18] [phr] | phr of Coalescent required to lower MFFT to 40° F. [6, 19] [phr] | phr of Coalescent required to lower MFFT to 40° F. [6, 20] [phr] | phr of Coalescent required to lower MFFT to 40° F. [6, 21] [phr] | also measured
1510 | 8.5 | 1260 | 8.4 | 1230 | 8.4 | 1220 | 8.3 | 1130 | 8.3 | 0.09 | 8.34 | 4.0 | 47.9 | 291.2 | CC(C)C(=O)C(C)(C)C(=O)OCC(C)(C)CO [Example 2, 3-Hydroxy-2,2-dimethylpropyl 2,2,4-trimethyl-3-oxopentanoate] | 5.9 | 8.8 | 5.6 | 1.6 | 6.4 | hydrolytic stability, in words [2, 22]: better than the industry standards
1430 | 8.5 | 1300 | 8.4 | 1290 | 8.4 | 1250 | 8.4 | 1130 | 8.3 | 0.07 | 8.13 | 2.1 | 63.8 | 287.7 | CC(C)C(=O)C(C)(C)C(=O)OCC(C)(C)C(O)C(C)C (centres unmarked) [Example 3, 3-Hydroxy-2,2,4-trimethylpentyl 2,2,4-trimethyl-3-oxopentanoate] | 6.0 | 9.7 | 5.6 | 1.3 | 8.2 | hydrolytic stability, in words [2, 22]: better than the industry standards
1380 | 8.4 | 1200 | 8.3 | 1210 | 8.2 | 1150 | 8.3 | 1100 | 8.2 | 0.09 | 8.82 | 0.01 | 99.0 | 320.0 | CC(C)C(=O)C(C)(C)C(=O)OCCOCCOCCOC(=O)C(C)(C)C(=O)C(C)C [Example 4] | 5.8 | 9.1 | 6.7 | 1.3 | 7.0 | hydrolytic stability, in words [2, 22]: better than the industry standards; volatility, in words ([5]; compared with Texanol): almost completely nonvolatile
– | – | – | – | – | – | – | – | – | – | 0.00 | 7.80 | 0.03 | 58.7 | 281.6 | CCCCC(CC)COCCOC(=O)C(C)(C)C(=O)C(C)C (centres unmarked) [Example 6, 2-(2-Ethylhexyloxy)ethyl 2,2,4-trimethyl-3-oxopentanoate] | 5.0 | – | 4.0 | 1.3 | – | Viscosity (cps) [2, 12]: 474 cps; pH [2, 12]: 8.6; Viscosity (cps) [2, 13]: 585 cps; pH [2, 13]: 8.4; Viscosity (cps) [2, 14]: 484 cps; pH [2, 14]: 8.8; Viscosity (cps) [2, 15]: 347 cps; pH [2, 15]: 8.8; Viscosity (cps) [2, 16]: 461 cps; pH [2, 16]: 8.4; hydrolytic stability, in words [2, 23]: better than the industry standards
